Results reported in US20250388568A1, “NLRP3 INHIBITORS” (Kodiak Sciences Inc., priority 2022, published 2025).
Read-outs that look alike come from different tables or passages of the source.

Assays:
[1] = test system: IL-1β release in THP-1-ASC-GFP cells after NLRP3 activation; assay: IC50 determination of IL-1β release inhibition in THP-1-ASC-GFP cells; assay type: cell-based; settings: THP1-ASC-GFP, read-out: IL-1β IC50 (nM) THP1 cells
Protocol: Example 78: IC50 Determination of IL-1β Release Inhibition in THP-1-ASC-GFP Cells The compounds were tested for their ability to inhibit the IL-1β release in the THP-1-ASC-GFP cells after NLRP3 activation. THP1-ASC-GFP cells (Invivogen […] thawed following Invivogen's initial culture procedure. […] The growth medium was composed of RPM1640 medium (Gibco 32404-014), 10% heat inactivated (HI) serum (Gibco A3840102), Pen/Strep (Quality Biologics 118-089-721), 10 mM Hepes (Quality Biologics 118-089-721), 2 mM Glutamax (GIBCO 35050-061), 100 μg/mL normocin (Invivogen ant-nr), 100 μg/mL Zeocin (Invivogen ant-zn). The growth medium was freshly prepared once a week and sterile filtered. Assay medium consisted of RPMI 1640 medium, 10 mM Hepes, 2 mM Glutamax and Pen/Strep. To the assay medium, 1 μg/mL LPS (Invivogen tlrl-3pelps) was added. A cell suspension was prepared with assay medium and LPS at 1.25M cells per mL. With an electronic pipet, 80 μl of cell suspension was added to U bottom 96 well polystyrene plates (VWR 10062-902) leaving columns 1 and 2 empty. The plates were placed in the incubator for 4 hours. […] DMSO). An hour prior to the end of LPS incubation, a separate 96 deep well plate, Plate B, was prepared with 400 μL of assay media per well, then 2 μL of the stock DMSO solution from Plate A was added to each corresponding well. Plate B was covered to avoid media evaporation. In a 50 mL tube, a solution of nigericin in assay media at […] concentration was prepared. To a new 96 deep well plate, Plate C, 200 μL of this nigericin containing media was dispensed to each well and […] of the test compounds from Plate A to each corresponding well was added. Plate C was covered to avoid media evaporation. After 4 hours of priming, all the media from the LPS treated THP-1 cells in the initial U bottom plate was removed manually. To this plate of primed cells, 80 μL/well test compounds from Plate B was added in duplicate columns (5 compounds tested per plate). The plate was placed in an incubator for 30 min. […] The plate was placed back in the incubator for 1 hour. At the end of 1 hour, the supernatant from this test plate was transferred to a new 96 well V bottom polypropylene plate which was frozen immediately at -80° C. The plate was transferred to -20° C. the next day and awaiting further determination of cytokine IL-1β level. The release of IL-1β into the cell media was determined by MSD® Multi-Spot Assay System (V-Plex, IL-1B kit, […]-4). Following the manufacture's protocol and using the Alternate Protocol 3, Dilute-In-Plate protocol specifically, the level of IL-1β in the above collected supernatant plate was measured as electrochemiluminescent signals. Using MSD DISCOVERY WORKBENCH® analysis software, the signals were converted to the concentration of IL-1β in each well. The IC50 values of the compounds were calculated using the Graph Pad Prism software based on the […] concentration determined. The detection range of IL-1β using MSD kit was approximately […] (based on various lots of standards purchased from MSD).

[2] = test system: IL-1β release in U937 cells after NLRP3 activation; assay: IC50 determination of IL-1β release inhibition in U937 cells; assay type: cell-based; settings: Homo sapiens, read-out: IL-1β IC50 (nM) U937 cells
In short: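 PMA-differentiated U937 cells (90 h) were primed 5 h with 1 μg/mL LPS, pre-incubated 30 min with compound, then stimulated with nigericin for 1 h. Supernatant IL-1β was quantified by MSD electrochemiluminescence. IC50 was derived from IL-1β concentration, with duplicate wells per compound.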

[3] = THP-1-ASC-GFP cells, LPS priming 4 h, nigericin, average of at least three experiments
[4] = U-937, PMA-differentiated U937 cells, LPS priming 5 h, nigericin, average of at least three experiments

Row | SMILES | IC50 [1, 3] [nM] | IC50 [2, 4] [nM] | IC50 ([1]; 4 h) [nM] | IC50 ([2]; U-937, 5 h) [nM]
1 | Cc1oc([S@@](=N)(=O)NC(=O)Nc2c3c(cc4c2CCC4)CCC3)cc1CNC(C)C (single isomer, unassigned) [Example 26, formic acid] | 50 to 500 | 50 to 500 | – | –
2 | CNCc1coc([S@@](=N)(=O)NC(=O)Nc2c3c(cc4c2CCC4)CCC3)c1 (single isomer, unassigned) [Example 76] | < 5 | < 5 | – | –
3 | CC(C)NCc1coc([S@](=N)(=O)NC(=O)Nc2c3c(c(F)c4c2CCC4)CCC3)c1 (single isomer, unassigned) [Example 31] | < 5 | < 5 | – | –
4 | Cc1cc(S(=O)(=O)NC(=O)Nc2c3c(c(F)c4c2CCC4)CCC3)oc1CN(C)CC1(O)CCC1 [Example 50, N-((8-fluoro-1,2,3,5,6,7-hexahydro-s-indacen-4-yl)carbamoyl)-5-((((1-hydroxycyclobutyl)methyl)(methyl)amino)methyl)-4-methylfuran-2-sulfonamide] | 5 to 50 | 5 to 50 | – | –
5 | O=C(Nc1c2c(cc3c1CCC3)CCC2)NS(=O)(=O)c1cc2c(o1)CCNC2 [Example 73, N-((1,2,3,5,6,7-hexahydro-s-indacen-4-yl)carbamoyl)-4,5,6,7-tetrahydrofuro[3,2-c]pyridine-2-sulfonamide] | 5 to 50 | 5 to 50 | – | –
6 | Cc1oc(S(=N)(=O)NC(=O)Nc2c3c(cc4c2CCC4)CCC3)cc1CN1CC[C@@H](CO)C1 (stereo partly drawn) [Example 5, N-((1,2,3,5,6,7-hexahydro-s-indacen-4-yl)carbamoyl)-4-(((R)-3-(hydroxymethyl)pyrrolidin-1-yl)methyl)-5-methylfuran-2-sulfonimidamide] | < 5 | < 5 | – | –
7 | CNCc1coc([S@](=N)(=O)NC(=O)Nc2c3c(cc4c2CCC4)CCC3)c1 (single isomer, unassigned) [Example 75] | 50 to 500 | 50 to 500 | – | –
8 | Cc1oc(S(=N)(=O)NC(=O)Nc2c3c(cc4c2CCC4)CCC3)cc1CNC(C)C (centres unmarked) [Example 25, N-((1,2,3,5,6,7-hexahydro-s-indacen-4-yl)carbamoyl)-4-((isopropylamino)methyl)-5-methylfuran-2-sulfonimidamide] | – | – | < 5 | < 5
9 | Cc1oc([S@](=N)(=O)NC(=O)Nc2c3c(c(F)c4c2CCC4)CCC3)cc1CNC(C)C (single isomer, unassigned) [Example 29] | < 5 | < 5 | – | –
10 | CC(C)(O)c1cc(S(=O)(=O)NC(=O)Nc2c3c(c(F)c4c2CCC4)CCC3)oc1COC1CNC1 [Example 71, 5-((azetidin-3-yloxy)methyl)-N-((8-fluoro-1,2,3,5,6,7-hexahydro-s-indacen-4-yl)carbamoyl)-4-(2-hydroxypropan-2-yl)furan-2-sulfonamide] | < 5 | 5 to 50 | – | –
11 | CN(Cc1coc(S(=O)(=O)NC(=O)Nc2c3c(cc4c2CCC4)CCC3)c1)CC1(O)CCC1 [Example 33, N-((1,2,3,5,6,7-hexahydro-s-indacen-4-yl)carbamoyl)-4-((((1-hydroxycyclobutyl)methyl)(methyl)amino)methyl)furan-2-sulfonamide] | 5 to 50 | 5 to 50 | – | –
12 | Cc1oc(S(=N)(=O)NC(=O)Nc2c3c(cc4c2CCC4)CCC3)cc1CNC(C)C (single isomer, unassigned) [Example 27, N-((1,2,3,5,6,7-hexahydro-s-indacen-4-yl)carbamoyl)-4-((isopropylamino)methyl)-5-methylfuran-2-sulfonimidamide] | < 5 | < 5 | – | –
13 | Cc1oc(S(=O)(=O)NC(=O)Nc2c3c(c(Cl)c4c2CCC4)CCC3)cc1CN(C)CC1(O)CCC1 [Example 48, N-((8-chloro-1,2,3,5,6,7-hexahydro-s-indacen-4-yl)carbamoyl)-4-((((1-hydroxycyclobutyl)methyl)(methyl)amino)methyl)-5-methylfuran-2-sulfonamide] | < 5 | 5 to 50 | – | –

More lines, main results first:

Row | IC50 [1, 3] [nM] | IC50 [2, 4] [nM] | SMILES | IC50 ([1]; 4 h) [nM] | IC50 ([2]; U-937, 5 h) [nM]
14 | < 5 | 5 to 50 | CC(C)n1nc(S(=N)(=O)NC(=O)Nc2c3c(cc4c2CCC4)CCC3)cc1CN1CCC[C@@H]1CO (stereo partly drawn) [Example 20, N-((1,2,3,5,6,7-hexahydro-s-indacen-4-yl)carbamoyl)-5-(((R)-2-(hydroxymethyl)pyrrolidin-1-yl)methyl)-1-isopropyl-1H-pyrazole-3-sulfonimidamide] | – | –
15 | 5 to 50 | 5 to 50 | Cn1nc(S(=O)(=O)NC(=O)Nc2c3c(c(F)c4c2CCC4)CCC3)cc1CN1CCC[C@H]1CO [Example 62, (S)-N-((8-fluoro-1,2,3,5,6,7-hexahydro-s-indacen-4-yl)carbamoyl)-5-((2-(hydroxymethyl)pyrrolidin-1-yl)methyl)-1-methyl-1H-pyrazole-3-sulfonamide] | – | –
16 | < 5 | 5 to 50 | Cc1oc(S(=O)(=O)NC(=O)Nc2c3c(c(F)c4c2CCC4)CCC3)cc1CN1C[C@@H](O)[C@H](F)C1 [Example 43, N-((8-fluoro-1,2,3,5,6,7-hexahydro-s-indacen-4-yl)carbamoyl)-4-(((3R,4R)-3-fluoro-4-hydroxypyrrolidin-1-yl)methyl)-5-methylfuran-2-sulfonamide] | – | –
17 | 5 to 50 | 5 to 50 | CC(O)c1cc(S(=O)(=O)NC(=O)Nc2c3c(c(F)c4c2CCC4)CCC3)oc1CN1CCNCC1 (centres unmarked) [Example 72, N-((8-fluoro-1,2,3,5,6,7-hexahydro-s-indacen-4-yl)carbamoyl)-4-(1-hydroxyethyl)-5-(piperazin-1-ylmethyl)furan-2-sulfonamide] | – | –
18 | 5 to 50 | 5 to 50 | Cc1oc(S(=O)(=O)NC(=O)Nc2c3c(c(F)c4c2CCC4)CCC3)cc1CN1CCC[C@H]1CO [Example 44, (S)-N-((8-fluoro-1,2,3,5,6,7-hexahydro-s-indacen-4-yl)carbamoyl)-4-((2-(hydroxymethyl)pyrrolidin-1-yl)methyl)-5-methylfuran-2-sulfonamide] | – | –
19 | 5 to 50 | 50 to 500 | Cc1oc(S(=O)(=O)NC(=O)Nc2c3c(c(F)c4c2CCC4)CCC3)cc1CN1C[C@@H](O)[C@@H](F)C1 [Example 42, N-((8-fluoro-1,2,3,5,6,7-hexahydro-s-indacen-4-yl)carbamoyl)-4-(((3S,4R)-3-fluoro-4-hydroxypyrrolidin-1-yl)methyl)-5-methylfuran-2-sulfonamide] | – | –
20 | < 5 | 5 to 50 | Cc1oc(S(=O)(=O)NC(=O)Nc2c3c(c(F)c4c2CCC4)CCC3)cc1CN1CCC[C@@H]1CO [Example 45, (R)-N-((8-fluoro-1,2,3,5,6,7-hexahydro-s-indacen-4-yl)carbamoyl)-4-((2-(hydroxymethyl)pyrrolidin-1-yl)methyl)-5-methylfuran-2-sulfonamide] | – | –
21 | 5 to 50 | 5 to 50 | Cc1oc(S(=O)(=O)NC(=O)Nc2c3c(c(F)c4c2CCC4)CCC3)cc1CN1C[C@H](O)[C@@H](F)C1 [Example 41, N-((8-fluoro-1,2,3,5,6,7-hexahydro-s-indacen-4-yl)carbamoyl)-4-(((3S,4S)-3-fluoro-4-hydroxypyrrolidin-1-yl)methyl)-5-methylfuran-2-sulfonamide] | – | –
22 | < 5 | < 5 | Cc1oc(S(=O)(=O)NC(=O)Nc2c3c(c(F)c4c2CCC4)CCC3)cc1CN(C)CC1(O)CCC1 [Example 35, N-((8-fluoro-1,2,3,5,6,7-hexahydro-s-indacen-4-yl)carbamoyl)-4-((((1-hydroxycyclobutyl)methyl)(methyl)amino)methyl)-5-methylfuran-2-sulfonamide] | – | –
